# Results from US20260130885A1, “ANTIMICROBIAL COMPOSITIONS, PHARMACEUTICAL COMPOSITIONS AND USE THEREOF” (priority 2022, published 2026).
# Like-named read-outs stand apart in the source and are kept apart here.
# Tests used:
# MRSA SCCmec VT = assay: Antibacterial activity assay (MIC, broth microdilution); format: cell-based, Staphylococcus aureus; conditions: for MIC: Staphylococcus aureus, MRSA; for combination effect: MIC
# [1] = test system: antibiotic-resistant Staphylococcus aureus; assay: MIC against all strains of Table 4; format: cell-based; conditions: agent alone, all the bacterial strains under the examination
# Experimental: (§1) The antimicrobial activity was based on MIC and MBC; MIC is the minimum inhibitory concentration and MBC is the minimum bactericidal concentration. The MIC of individual test agents against MRSA USA300 strains was determined using the broth microdilution method according to CLSI guidelines. Briefly, overnight bacterial cultures in LB medium were diluted 1:50 in fresh LB medium and incubated at 37° C. until reaching an OD600 of 0.5 to 0.6. Bacterial suspensions were diluted to a final concentration of 5×10^5 cfu/mL in fresh CAMHB and then exposed to each test agent at increasing doses in triplicate in 96-well plates for 24 hours at 37° C. The MIC of each agent was defined as the lowest concentration without visible bacterial growth. […] The lowest broth dilution that had no viable bacteria was considered the MBC.
# Then, the combination effect was measured by calculating their corresponding fractional inhibitory concentration index (FICI) with the equation ΣFIC (FICi)=FICA+FICB=(CombA/MICA)+(CombB/MICB), where MICA and MICB are the MICs of drugs A and B alone, respectively, and CombA and CombB are the concentrations of drugs A and B in combination, respectively. […]
# The antibacterial activity of the SC5005-DHA composition against a series of antibiotic-resistant Staphylococcus aureus was analyzed, and the results are shown in Table 4.
# MRSA ATCC33591 = assay: Antibacterial activity assay (MIC, broth microdilution); format: cell-based, Staphylococcus aureus; conditions: for MIC: Staphylococcus aureus; for combination effect: MIC
# MRSA ATCC49476 = assay: as above; format: cell-based, Staphylococcus aureus; conditions: for MIC: Staphylococcus aureus; for combination effect: MIC
# MRSA ATCC33592 = assay: as above; format: cell-based, Staphylococcus aureus; conditions: for MIC: Staphylococcus aureus; for combination effect: MIC
# MRSA ATCC43300 = assay: as above; format: cell-based, Staphylococcus aureus; conditions: for MIC: Staphylococcus aureus; for combination effect: MIC
# S. aureus DAP-NS = assay: as above; format: cell-based, Staphylococcus aureus; conditions: for MIC: Staphylococcus aureus; for combination effect: MIC
# S. aureus ATCC29213 = assay: as above; format: cell-based, Staphylococcus aureus; conditions: for MIC: Staphylococcus aureus; for combination effect: MIC, +8 mg/L DHA
# S. aureus NCTC8325 = assay: as above; format: cell-based, Staphylococcus aureus; conditions: for MIC: Staphylococcus aureus; for combination effect: MIC, +8 mg/L DHA
# MRSA USA300 = assay: Antibacterial activity assay (MIC by broth microdilution, MBC by subculture); format: cell-based, Staphylococcus aureus; conditions: for combination effect: MIC
# Experimental: as §1
# Then, the combination effect was measured by calculating their corresponding fractional inhibitory concentration index (FICI) with the equation ΣFIC (FICi)=FICA+FICB=(CombA/MICA)+(CombB/MICB), where MICA and MICB are the MICs of drugs A and B alone, respectively, and CombA and CombB are the concentrations of drugs A and B in combination, respectively. […] was defined as an FICI≤0.5, no interaction was defined as an FICI>0.5-4.0, and antagonism was defined as an FICI>4.
# VRSA SJC1200 = assay: Antibacterial activity assay (MIC, broth microdilution); format: cell-based, Staphylococcus aureus; conditions: for MIC: Staphylococcus aureus, VRSA; for combination effect: MIC
# [2] = test system: MRSA USA300 persister cells; assay: Persister killing assay; format: cell-based, Staphylococcus aureus; conditions: 16×MIC, 16 mg/L; FIG. 1
# Experimental: (§2) The number of viable bacteria in broth after each exposure period was enumerated by a cfu assay and expressed as cfu/mL; the data shown are the mean±SD (standard deviation) of independent experiments. […] The number of viable bacteria in the broth after each exposure period was calculated by a cfu assay (cfu/mL); the data are shown as the mean±SD of three independent experiments (n=3 for each group). Since the standard deviation of each point is very small, the error line is not shown in each graph. The horizontal dashed line in the upper left graph and the upper right graph represents […] of the bacterial cells killed. In addition, the blank controls in FIG. 1 are shown as filled diamonds.
# (§3) Bacteria were collected by centrifugation at 4000×g for 10 min at 4° C., washed with ice-cold PBS, and suspended in PBS with test agents. Controls received DMSO and ethanol vehicles at concentrations equal to those for drug-treated bacteria. At the designated times, the number of viable bacteria was assessed by serial dilution of a 100 μL aliquot bacterial suspension in PBS and then spread onto LB agar plates. After incubation at 37° C. for 18-24 hours, the number of colonies was counted and expressed as cfu/mL.
# [3] = test system: S. aureus NCTC8325 persister cells; assay: Persister killing assay; format: cell-based, Staphylococcus aureus; conditions: 16×MIC, 16 mg/L; FIG. 1
# Experimental: as §2, §3
# [4] = +8 mg/L DHA, MRSA USA300 (Table 4)
# [5] = Staphylococcus aureus, amide compound alone, read-out: MBC
# [6] = Staphylococcus aureus, amide compound alone, read-out: MIC
# [7] = agent alone, MRSA USA300 (Table 4)
MIC (MRSA SCCmec VT; agent alone) [µg/mL],MIC (MRSA ATCC33591; agent alone) [µg/mL],MIC (MRSA ATCC49476; agent alone) [µg/mL],MIC (MRSA ATCC33592; agent alone) [µg/mL],MIC (MRSA ATCC43300; agent alone) [µg/mL],MIC (S. aureus DAP-NS; agent alone) [µg/mL],"MIC (S. aureus ATCC29213; ATCC29213, agent alone) [µg/mL]","MIC (S. aureus NCTC8325; NCTC8325, agent alone) [µg/mL]",MIC (VRSA SJC1200; agent alone) [µg/mL],MIC (MRSA SCCmec VT; +8 mg/L DHA) [µg/mL],MIC (MRSA ATCC33591; +8 mg/L DHA) [µg/mL],MIC (MRSA ATCC49476; +8 mg/L DHA) [µg/mL],MIC (MRSA ATCC33592; +8 mg/L DHA) [µg/mL],MIC (MRSA ATCC43300; +8 mg/L DHA) [µg/mL],Compound,combination effect (MRSA SCCmec VT; +8 mg/L DHA),combination effect (MRSA ATCC33591; +8 mg/L DHA),combination effect (MRSA ATCC49476; +8 mg/L DHA),combination effect (MRSA ATCC33592; +8 mg/L DHA),combination effect (MRSA ATCC43300; +8 mg/L DHA),combination effect (S. aureus DAP-NS; +8 mg/L DHA),also measured
1020,1020,1020,1020,1020,1020,1020,1020,1020,,,,,,"CC/C=C\C/C=C\C/C=C\C/C=C\C/C=C\C/C=C\CCC(=O)O [DHA, docosahexaenoic acid]",,,,,,,"MIC [1]: 1020 µg/mL; MIC (MRSA USA300; Staphylococcus aureus, agent alone, MRSA USA300 (Table 4), read-out: MIC): 1020 µg/mL; MBC (MRSA USA300; Staphylococcus aureus, fatty acid alone, read-out: MBC fatty acid): 1020 µg/mL; MIC (MRSA USA300; Staphylococcus aureus, fatty acid alone, read-out: MIC fatty acid): 1020 µg/mL"
0.125,0.0625,0.0625,0.0625,0.0625,0.0625,0.0625,0.0625,0.125,0.00098,6.1e-05,1.5e-05,0.00098,0.00098,O=C(Nc1ccc2c(c1)OC(F)(F)O2)Nc1ccc(Cl)c(C(F)(F)F)c1 [PK150],(Syn) (Synergy (Syn) was defined as an FICI≤0.5),| (Syn) (Synergy (Syn) was defined as an FICI≤0.5),| (Syn) (Synergy (Syn) was defined as an FICI≤0.5),(Syn) (Synergy (Syn) was defined as an FICI≤0.5),(Syn) (Synergy (Syn) was defined as an FICI≤0.5),(Syn) (Synergy (Syn) was defined as an FICI≤0.5),"MIC (S. aureus DAP-NS; +8 mg/L DHA): 0.0156 µg/mL; combination effect (S. aureus ATCC29213): (Syn) (Synergy (Syn) was defined as an FICI≤0.5); MIC (S. aureus ATCC29213; ATCC29213, +8 mg/L DHA): 0.0039 µg/mL; combination effect (S. aureus NCTC8325): (Syn) (Synergy (Syn) was defined as an FICI≤0.5); MIC (S. aureus NCTC8325; NCTC8325, +8 mg/L DHA): 3.5e-05 µg/mL; MBC (MRSA USA300; +8 mg/L DHA): 0.00098 µg/mL; MIC (MRSA USA300; +8 mg/L DHA): 0.00049 µg/mL; MIC (MRSA USA300; [4]): 0.00049 µg/mL; synergy of the amide compound with DHA (in words) (MRSA USA300; MIC after adding DHA is less than ¼ of its original MIC, 8 mg/L DHA): synergistic antibacterial activity with DHA; combination effect (MRSA USA300; [4]): (Syn) (Synergy (Syn) was defined as an FICI≤0.5); MBC (MRSA USA300; [5]): 2 µg/mL; MIC (MRSA USA300; [6]): 0.0625 µg/mL; MIC (MRSA USA300; [7]): 0.0625 µg/mL; combination effect (VRSA SJC1200; +8 mg/L DHA): (Syn) (Synergy (Syn) was defined as an FICI≤0.5); MIC (VRSA SJC1200; +8 mg/L DHA): 0.00012 µg/mL"
> 64,> 64,> 64,> 64,> 64,32,64,4,> 64,0.5,0.5,0.5,0.5,0.5,CNC(=O)c1cc(Oc2ccc(NC(=O)Nc3ccc(Cl)c(C(F)(F)F)c3)cc2)ccn1 [Sorafenib],(Syn) (Synergy (Syn) was defined as an FICI≤0.5),(Syn) (Synergy (Syn) was defined as an FICI≤0.5),(Syn) (Synergy (Syn) was defined as an FICI≤0.5),(Syn) (Synergy (Syn) was defined as an FICI≤0.5),(Syn) (Synergy (Syn) was defined as an FICI≤0.5),(Syn) (Synergy (Syn) was defined as an FICI≤0.5),"MIC (S. aureus DAP-NS; +8 mg/L DHA): 0.5 µg/mL; combination effect (S. aureus ATCC29213): (Syn) (Synergy (Syn) was defined as an FICI≤0.5); MIC (S. aureus ATCC29213; ATCC29213, +8 mg/L DHA): 0.5 µg/mL; combination effect (S. aureus NCTC8325): (Syn) (Synergy (Syn) was defined as an FICI≤0.5); MIC (S. aureus NCTC8325; NCTC8325, +8 mg/L DHA): 0.5 µg/mL; MBC (MRSA USA300; +8 mg/L DHA): 1 µg/mL; MIC (MRSA USA300; +8 mg/L DHA): 0.5 µg/mL; MIC (MRSA USA300; [4]): 0.5 µg/mL; combination effect (MRSA USA300; [4]): (Syn) (Synergy (Syn) was defined as an FICI≤0.5); MBC (MRSA USA300; [5]): > 64 µg/mL; MIC (MRSA USA300; [6]): > 64 µg/mL; MIC (MRSA USA300; [7]): >64 µg/mL; combination effect (VRSA SJC1200; +8 mg/L DHA): (Syn) (Synergy (Syn) was defined as an FICI≤0.5); MIC (VRSA SJC1200; +8 mg/L DHA): 0.5 µg/mL"
,,,,,,,,,,,,,,"CN[C@H](CC(C)C)C(=O)N[C@H]1C(=O)N[C@@H](CC(N)=O)C(=O)N[C@H]2C(=O)N[C@H]3C(=O)N[C@H](C(=O)N[C@H](C(=O)O)c4cc(O)cc(O)c4-c4cc3ccc4O)[C@H](O)c3ccc(c(Cl)c3)Oc3cc2cc(c3O[C@@H]2O[C@H](CO)[C@@H](O)[C@H](O)[C@H]2O[C@H]2C[C@](C)(N)[C@H](O)[C@H](C)O2)Oc2ccc(cc2Cl)[C@H]1O [vancomycin, reference compound]",,,,,,,killing of persister cells (in words) [2]: resistant to the killing activity; killing of persister cells (in words) [3]: resistant to the killing activity
